# Reference: patent publication US8318504B2, “MRP2 efflux pathway prognostic method” (priority 2009, dated 2012)
# Columns and labels:
# OATP2B1 = target: T1, OATP2B1 (Homo sapiens, UniProt O94956); assay: Inhibition by CLF of estrone-3-sulfate transport in CHO cells expressing OATP2B1; assay type: cell-based; details: 0, 5 or 50 μmol/L CLF, 1 μmol/L estrone-3-sulfate
# T1 construct: expressed in transfected cells; host or cells: CHO cells (stably transfected; Treiber et al. 2007)
# T1 sequence (O94956 1-709): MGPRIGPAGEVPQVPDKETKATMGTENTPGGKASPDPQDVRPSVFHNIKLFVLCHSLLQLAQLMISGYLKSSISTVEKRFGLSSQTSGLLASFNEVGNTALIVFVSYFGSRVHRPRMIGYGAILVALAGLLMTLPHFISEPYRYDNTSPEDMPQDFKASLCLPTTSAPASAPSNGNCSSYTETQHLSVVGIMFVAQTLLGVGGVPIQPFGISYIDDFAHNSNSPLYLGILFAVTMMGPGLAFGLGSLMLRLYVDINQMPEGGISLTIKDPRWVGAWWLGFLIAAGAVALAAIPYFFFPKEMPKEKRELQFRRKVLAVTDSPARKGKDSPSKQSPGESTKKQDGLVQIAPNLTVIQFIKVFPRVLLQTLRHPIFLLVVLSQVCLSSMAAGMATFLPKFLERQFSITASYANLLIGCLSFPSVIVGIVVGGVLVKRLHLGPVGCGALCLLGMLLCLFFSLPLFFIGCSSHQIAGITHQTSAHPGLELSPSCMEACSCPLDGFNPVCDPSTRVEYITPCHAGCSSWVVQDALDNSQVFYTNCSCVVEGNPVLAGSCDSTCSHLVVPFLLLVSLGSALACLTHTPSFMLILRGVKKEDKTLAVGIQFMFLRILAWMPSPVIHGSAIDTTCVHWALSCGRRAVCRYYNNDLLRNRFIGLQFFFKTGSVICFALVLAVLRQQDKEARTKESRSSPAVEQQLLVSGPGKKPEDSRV
# Procedure: FIGS. 3A-3D relate to inhibition of transport activity of hepatocellular uptake transporters by CLF. CHO cells expressing NTCP, OATP1B1, OATP1B3 and OATP2B1 were incubated with 0, 5 or 50 μmol/L CLF and with the substrates, 2.5 μmol/L TC, 1 μmol/L estrone-3-sulfate, 10 μmol/L TC and 1 μmol/L estrone-3-sulfate, respectively. Data represent means±SD of triplicate determinations.
# For all transport experiments, cells grown on 3 cm culture dishes were cultured for 24 hours in media supplemented with 5 mmol/L sodium-butyrate to increase expression levels of transfected transporters [Palermo D P et al., J Biotechnol 1991 June; 19(1):35-47]. • Transport experiments with uptake of radioactively labeled substrates: These experiments were performed as described by Huber R D et al. [Am J Physiol Cell Physiol 2007 February; 292(2):C795-C806]. • Transport experiments with uptake of CLF: Uptake was performed in the same buffers as for the radioactive substrates above. […] After complete solubilization, 1.5 ml was used to measure fluorescence in a Perkin-Elmer LS-5 luminescence-spectrometer set at λexe 486 nm (slit 10 nm) and λem 520 nm (slit 5 nm). Protein was determined with the bicinchoninic acid method using a kit from Interchim (Montfuçon, France). […]
# [1] = ATP-dependent transport of CLF into control wild type Sf21 membrane vesicles; assay type: biochemical
# Procedure: (§1) The production of recombinant baculovirus was as described by de Waart et al. [Liver Int 2006 April; 26(3):362-368]. ABCC3 and ABCG2-recombinant baculovirus were a kind gift from Borst [Breedveld P. et al., Cancer Res 2004 Aug. 15; 64(16):5804-5811 and Borst P. et al., J Biol Chem 2001 Dec. 7; 276(49):46400-46407.]. ABCB11-recombinant baculovirus was a kind gift from Thompson [Thompson R J et al., Gastroenterology 2002 November; 123(5):1649-1658]. Sf21 cells grown at 27° C. were infected with ABCB11, ABCC2, ABCC3 and ABCG2-cDNA containing baculovirus. Cells were harvested at 2-4 days after infection. Membrane vesicle preparation was as described by de Waart et al. [Liver Int 2006 April; 26(3):362-368].
# Transport studies with membrane vesicles were performed using the rapid filtration technique as described by Heijn M et al. [Am J Physiol 1992 January; 262(1 Pt 1):C104-C110]. Radiolabel was measured with a scintillation counter. When CLF was used as a probe, filters were placed in a glass tube, 0.1% Triton-X-100 was added and the tubes vortexed. Samples were pipetted in 96-well plates (Kartell, Noviglio, Italy) and the amount CLF quantitated by measurement of fluorescence at λexe 485 nm and λcm 520 nm using a NovoStar (BMG-labtech, Offenburg, Germany).
# ABCC2 = target: T2, ABCC2 (Homo sapiens, UniProt Q92887); assay: ATP-dependent transport of CLF into Sf21 membrane vesicles containing ABCC2; assay type: biochemical; design: Vmax of ABCC2 mediated transport of CLF: unit not given here
# T2 construct: made in house; host or cells: Sf21 insect cells, baculovirus; plasma membrane vesicles
# T2 sequence (Q92887 whole entry): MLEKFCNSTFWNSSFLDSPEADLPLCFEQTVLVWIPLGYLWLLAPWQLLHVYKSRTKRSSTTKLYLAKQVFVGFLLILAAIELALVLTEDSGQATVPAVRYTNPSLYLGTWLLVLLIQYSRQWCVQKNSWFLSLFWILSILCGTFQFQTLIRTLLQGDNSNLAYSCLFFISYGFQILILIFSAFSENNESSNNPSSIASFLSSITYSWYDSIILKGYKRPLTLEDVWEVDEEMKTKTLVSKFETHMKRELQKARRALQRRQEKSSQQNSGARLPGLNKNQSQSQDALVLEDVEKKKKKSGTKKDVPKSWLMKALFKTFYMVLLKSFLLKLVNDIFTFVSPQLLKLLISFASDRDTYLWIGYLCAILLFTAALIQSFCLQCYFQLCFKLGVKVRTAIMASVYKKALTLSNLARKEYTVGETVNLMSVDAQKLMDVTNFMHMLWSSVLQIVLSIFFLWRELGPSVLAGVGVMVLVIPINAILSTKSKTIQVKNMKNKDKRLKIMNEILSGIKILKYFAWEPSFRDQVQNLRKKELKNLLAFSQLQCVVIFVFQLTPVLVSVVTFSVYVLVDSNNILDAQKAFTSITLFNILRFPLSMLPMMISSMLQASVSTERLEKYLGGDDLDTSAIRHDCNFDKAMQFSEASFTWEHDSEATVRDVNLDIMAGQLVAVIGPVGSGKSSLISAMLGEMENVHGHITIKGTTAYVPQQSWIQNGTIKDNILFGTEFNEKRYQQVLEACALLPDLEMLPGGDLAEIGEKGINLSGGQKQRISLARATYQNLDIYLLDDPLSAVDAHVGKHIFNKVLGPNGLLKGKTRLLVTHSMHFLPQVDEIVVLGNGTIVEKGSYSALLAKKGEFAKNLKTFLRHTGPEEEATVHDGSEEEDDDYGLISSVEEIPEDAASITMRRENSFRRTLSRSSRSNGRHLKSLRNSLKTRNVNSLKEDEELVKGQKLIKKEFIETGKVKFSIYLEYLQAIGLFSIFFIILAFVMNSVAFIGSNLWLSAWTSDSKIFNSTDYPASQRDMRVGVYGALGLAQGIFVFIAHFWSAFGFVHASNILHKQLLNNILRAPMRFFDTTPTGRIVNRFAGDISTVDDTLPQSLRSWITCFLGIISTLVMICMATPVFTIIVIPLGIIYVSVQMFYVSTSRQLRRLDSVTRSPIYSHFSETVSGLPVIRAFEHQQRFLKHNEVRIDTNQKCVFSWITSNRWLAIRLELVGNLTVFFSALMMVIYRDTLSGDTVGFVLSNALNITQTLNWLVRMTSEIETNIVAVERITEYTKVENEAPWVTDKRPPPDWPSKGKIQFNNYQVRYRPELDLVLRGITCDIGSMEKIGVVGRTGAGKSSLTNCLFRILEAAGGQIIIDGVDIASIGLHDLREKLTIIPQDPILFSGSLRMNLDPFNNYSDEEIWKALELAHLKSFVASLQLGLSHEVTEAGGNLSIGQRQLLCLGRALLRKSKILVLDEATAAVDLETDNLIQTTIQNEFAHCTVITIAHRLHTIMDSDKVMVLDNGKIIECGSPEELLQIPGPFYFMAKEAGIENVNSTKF
# Procedure: as §1
# (§2) Transport studies with membrane vesicles were performed using the rapid filtration technique as described by Heijn M et al. [Am J Physiol 1992 January; 262(1 Pt 1):C104-C110]. Radiolabel was measured with a scintillation counter. When CLF was used as a probe, filters were placed in a glass tube, 0.1% Triton-X-100 was added and the tubes vortexed. Samples were pipetted in 96-well plates (Kartell, Noviglio, Italy) and the amount CLF quantitated by measurement of fluorescence at λexe 485 nm and λcm 520 nm using a NovoStar (BMG-labtech, Offenburg, Germany). […]
# ABCC3 = target: T3, ABCC3 (Homo sapiens, UniProt O15438); assay: ATP-dependent transport of CLF into Sf21 membrane vesicles containing ABCC3; assay type: biochemical
# T3 construct: made in house; host or cells: Sf21 insect cells, baculovirus (gift from Borst); plasma membrane vesicles
# T3 sequence (O15438 whole entry): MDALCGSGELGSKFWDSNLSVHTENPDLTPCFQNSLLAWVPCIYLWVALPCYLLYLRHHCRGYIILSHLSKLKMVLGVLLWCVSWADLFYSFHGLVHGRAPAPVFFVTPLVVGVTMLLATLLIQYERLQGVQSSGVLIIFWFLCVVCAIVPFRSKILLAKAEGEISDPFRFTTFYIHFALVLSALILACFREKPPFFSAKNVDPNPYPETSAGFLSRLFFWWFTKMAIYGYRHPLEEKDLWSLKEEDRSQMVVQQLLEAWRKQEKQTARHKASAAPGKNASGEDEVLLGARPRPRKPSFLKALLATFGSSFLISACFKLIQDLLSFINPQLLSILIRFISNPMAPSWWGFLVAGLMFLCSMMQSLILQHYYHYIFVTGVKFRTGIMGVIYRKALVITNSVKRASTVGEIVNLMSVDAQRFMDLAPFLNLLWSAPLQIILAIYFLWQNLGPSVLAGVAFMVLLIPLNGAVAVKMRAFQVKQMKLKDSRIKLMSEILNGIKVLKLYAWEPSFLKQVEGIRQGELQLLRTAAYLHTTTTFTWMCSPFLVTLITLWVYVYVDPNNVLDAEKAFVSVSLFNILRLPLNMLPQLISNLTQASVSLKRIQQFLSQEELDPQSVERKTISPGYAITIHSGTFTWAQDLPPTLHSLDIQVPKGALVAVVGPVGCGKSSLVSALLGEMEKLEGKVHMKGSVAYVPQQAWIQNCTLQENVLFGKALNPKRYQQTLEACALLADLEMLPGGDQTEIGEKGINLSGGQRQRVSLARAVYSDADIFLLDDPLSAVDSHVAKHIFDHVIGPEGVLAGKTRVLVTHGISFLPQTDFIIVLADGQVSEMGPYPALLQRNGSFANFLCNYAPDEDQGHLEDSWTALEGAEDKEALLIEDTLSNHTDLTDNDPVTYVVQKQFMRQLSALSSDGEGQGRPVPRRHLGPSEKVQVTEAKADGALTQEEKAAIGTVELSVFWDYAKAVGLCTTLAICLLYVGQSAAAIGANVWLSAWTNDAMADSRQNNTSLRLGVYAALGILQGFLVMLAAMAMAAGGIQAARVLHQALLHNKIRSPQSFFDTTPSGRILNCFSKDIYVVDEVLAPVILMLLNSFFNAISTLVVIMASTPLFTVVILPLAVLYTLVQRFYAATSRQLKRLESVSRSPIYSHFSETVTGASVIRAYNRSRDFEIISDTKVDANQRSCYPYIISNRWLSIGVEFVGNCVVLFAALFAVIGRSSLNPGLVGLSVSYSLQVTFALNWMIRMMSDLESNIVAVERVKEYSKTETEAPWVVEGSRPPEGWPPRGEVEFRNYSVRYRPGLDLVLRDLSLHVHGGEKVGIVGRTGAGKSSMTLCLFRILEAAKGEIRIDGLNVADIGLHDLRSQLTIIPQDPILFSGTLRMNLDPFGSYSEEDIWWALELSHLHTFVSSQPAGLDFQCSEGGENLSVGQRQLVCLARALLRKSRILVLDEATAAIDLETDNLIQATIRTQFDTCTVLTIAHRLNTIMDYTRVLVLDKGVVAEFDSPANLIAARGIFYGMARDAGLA
# Procedure: as §1, §2
# [2] = compared to control wild type Sf21 membrane vesicles
compound,measurement,setting,value
"CC(CCC(=O)NC(CCCCNC(=S)Nc1ccc(-c2c3ccc(=O)cc-3oc3cc(O)ccc23)c(C(=O)O)c1)C(=O)O)C1CCC2C3C(O)CC4CC(O)CCC4(C)C3CC(O)C12C (stereo not drawn) [CLF, cholyl lysyl fluorescein]",inhibition of transport of estrone-3-sulfate mediated by OATP2B1 by CLF,OATP2B1,much less efficiently
same,ATP-dependent uptake of CLF in control vesicles,[1],slight ATP-dependent uptake
same,Vmax of ABCC2 mediated transport of CLF,"ABCC2; 10 μg total protein, presence or absence of 4 mmol/L ATP",436±215
same,CLF transport in ABCC2 containing membrane vesicles,ABCC2; [2],much higher CLF transport rates
same,Vmax of ABCC3 mediated transport of CLF,"ABCC3; 30 μg total protein, presence or absence of 4 mmol/L ATP",188±55 μmol CLF/mg protein/min
same,CLF transport in ABCC3 containing membrane vesicles,ABCC3; [2],much higher CLF transport rates
